The supplement of paper PMC8612539
In brackets after ≈: the same amount, converted by molar mass.

System: Histophilus somni
Assay: minimum inhibitory concentration (MIC)
Description: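 Broth microdilution MIC (Sensititre BOPO7F bovine plate, CLSI methods) of 19 antimicrobials against field isolates of P. multocida, M. haemolytica, H. somni (deep nasopharyngeal swabs) and E. coli, Enterococcus spp. (rectal swabs) from weaned dairy heifers. Incubation 16-24 h at 35 C. MIC is the lowest concentration preventing visible growth. Values with <= or > lie at the tested range limits. Trimethoprim-sulfamethoxazole is given as the trimethoprim component of a 1:19 mixture.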

CNC(C)C1CCC(N)C(OC2C(N)CC(N)C(OC3OCC(C)(O)C(NC)C3O)C2O)O1 (configuration not stated) [Gentamicin]
Details	minimum inhibitory concentration [µg/mL]
isolate (source animal id): 3	8 (≈ 16.8 µM)
isolate (source animal id): 4	8 (≈ 16.8 µM)
isolate (source animal id): 7	4 (≈ 8.38 µM)
isolate (source animal id): 14	4 (≈ 8.38 µM)
isolate (source animal id): 15	16 (≈ 33.5 µM)
isolate (source animal id): 17	≤ 1
isolate (source animal id): 18	16 (≈ 33.5 µM)
isolate (source animal id): 20	≤ 1
isolate (source animal id): 23	16 (≈ 33.5 µM)
isolate (source animal id): 45	4 (≈ 8.38 µM)
isolate (source animal id): 53	4 (≈ 8.38 µM)
isolate (source animal id): 83	16 (≈ 33.5 µM)
isolate (source animal id): 88	4 (≈ 8.38 µM)
isolate (source animal id): 92	16 (≈ 33.5 µM)
isolate (source animal id): 93	4 (≈ 8.38 µM)
isolate (source animal id): 99	16 (≈ 33.5 µM)
isolate (source animal id): 100	16 (≈ 33.5 µM)
isolate (source animal id): 105	16 (≈ 33.5 µM)
isolate (source animal id): 107	16 (≈ 33.5 µM)
isolate (source animal id): 108	16 (≈ 33.5 µM)
isolate (source animal id): 109	16 (≈ 33.5 µM)
isolate (source animal id): 110	16 (≈ 33.5 µM)
isolate (source animal id): 117	4 (≈ 8.38 µM)
isolate (source animal id): 121	4 (≈ 8.38 µM)
isolate (source animal id): 123	8 (≈ 16.8 µM)
isolate (source animal id): 124	8 (≈ 16.8 µM)
isolate (source animal id): 127	8 (≈ 16.8 µM)
isolate (source animal id): 128	8 (≈ 16.8 µM)
isolate (source animal id): 130	> 16
isolate (source animal id): 132	8 (≈ 16.8 µM)
isolate (source animal id): 135	8 (≈ 16.8 µM)
isolate (source animal id): 140	8 (≈ 16.8 µM)
isolate (source animal id): 141	4 (≈ 8.38 µM)
isolate (source animal id): 142	8 (≈ 16.8 µM)
isolate (source animal id): 144	8 (≈ 16.8 µM)
isolate (source animal id): 146	> 16
isolate (source animal id): 147	16 (≈ 33.5 µM)
isolate (source animal id): 151	8 (≈ 16.8 µM)
isolate (source animal id): 153	8 (≈ 16.8 µM)
isolate (source animal id): 154	16 (≈ 33.5 µM)
isolate (source animal id): 156	16 (≈ 33.5 µM)
isolate (source animal id): 157	8 (≈ 16.8 µM)
isolate (source animal id): 176	≤ 1
isolate (source animal id): 183	≤ 1
isolate (source animal id): 186	≤ 1
isolate (source animal id): 196	8 (≈ 16.8 µM)
isolate (source animal id): 198	8 (≈ 16.8 µM)
isolate (source animal id): 200	8 (≈ 16.8 µM)
isolate (source animal id): 206	8 (≈ 16.8 µM)
isolate (source animal id): 208	8 (≈ 16.8 µM)
isolate (source animal id): 210	8 (≈ 16.8 µM)
isolate (source animal id): 212	4 (≈ 8.38 µM)
isolate (source animal id): 215	8 (≈ 16.8 µM)
isolate (source animal id): 216	8 (≈ 16.8 µM)
isolate (source animal id): 218	8 (≈ 16.8 µM)
isolate (source animal id): 219	8 (≈ 16.8 µM)
isolate (source animal id): 224	8 (≈ 16.8 µM)
isolate (source animal id): 228	2 (≈ 4.19 µM)
isolate (source animal id): 230	≤ 1
isolate (source animal id): 233	2 (≈ 4.19 µM)
isolate (source animal id): 238	≤ 1
isolate (source animal id): 239	2 (≈ 4.19 µM)
isolate (source animal id): 241	2 (≈ 4.19 µM)
isolate (source animal id): 242	2 (≈ 4.19 µM)
isolate (source animal id): 243	≤ 1
isolate (source animal id): 245	≤ 1
isolate (source animal id): 246	2 (≈ 4.19 µM)
isolate (source animal id): 247	≤ 1
isolate (source animal id): 248	≤ 1
isolate (source animal id): 250	≤ 1
isolate (source animal id): 251	≤ 1
isolate (source animal id): 252	2 (≈ 4.19 µM)
isolate (source animal id): 254	≤ 1
isolate (source animal id): 258	4 (≈ 8.38 µM)
isolate (source animal id): 259	8 (≈ 16.8 µM)
isolate (source animal id): 262	4 (≈ 8.38 µM)
isolate (source animal id): 264	4 (≈ 8.38 µM)
isolate (source animal id): 265	> 16
isolate (source animal id): 266	8 (≈ 16.8 µM)
isolate (source animal id): 267	8 (≈ 16.8 µM)
isolate (source animal id): 269	4 (≈ 8.38 µM)
isolate (source animal id): 271	8 (≈ 16.8 µM)
isolate (source animal id): 272	> 16
isolate (source animal id): 274	4 (≈ 8.38 µM)
isolate (source animal id): 276	≤ 1
isolate (source animal id): 278	8 (≈ 16.8 µM)
isolate (source animal id): 280	> 16
isolate (source animal id): 281	8 (≈ 16.8 µM)
isolate (source animal id): 283	4 (≈ 8.38 µM)
isolate (source animal id): 288	16 (≈ 33.5 µM)
isolate (source animal id): 291	8 (≈ 16.8 µM)
isolate (source animal id): 292	16 (≈ 33.5 µM)
isolate (source animal id): 296	8 (≈ 16.8 µM)
isolate (source animal id): 306	8 (≈ 16.8 µM)
isolate (source animal id): 336	16 (≈ 33.5 µM)
isolate (source animal id): 337	16 (≈ 33.5 µM)
isolate (source animal id): 341	8 (≈ 16.8 µM)
